Test system: HLA-A*24
Assay: MHC binding assay, UV-ligand exchange with beta2m ELISA, HLA-A*24
Design: species or system human
Conditions: binding to HLA-A*24 ranged by peptide exchange yield (UV-ligand exchange, beta2m ELISA)
Source text: Candidate peptides for T cell based therapies according to the present invention were further tested for their MHC binding capacity (affinity). The individual peptide-MHC complexes were produced by UV-ligand exchange, where a UV-sensitive peptide is cleaved upon UV-irradiation, and exchanged with the peptide of interest as analyzed. Only peptide candidates that can effectively bind and stabilize the peptide-receptive MHC molecules prevent dissociation of the MHC complexes. To determine the yield of the exchange reaction, an ELISA was performed based on the detection of the light chain (ß2 m) of stabilized MHC complexes. The assay was performed as generally described in Rodenko et al. (Rodenko et al., 2006).
96 well MAXISorp plates (NUNC) were coated over night with 2 ug/ml streptavidin in PBS at room temperature, washed 4× and blocked for 1 h at 37° C. in 2% BSA containing blocking buffer. […] Peptide-MHC monomers of the UV-exchange reaction were diluted 100 fold in blocking buffer. Samples were incubated for 1 h at 37° C., washed four times, incubated with 2 ug/ml HRP conjugated anti-β2 m for 1h at 37° C., washed again and detected with TMB solution that is stopped with […]. Absorption was measured at 450 nm. Candidate peptides that show a high exchange yield (preferably higher than 50%, most preferred higher than 75%) are generally preferred for a generation and production of antibodies or fragments thereof, and/or T cell receptors or fragments thereof, as they show sufficient avidity to the MHC molecules and prevent dissociation of the MHC complexes.

Substance	Peptide exchange
281 (NYSPGLVSLIL; listed as Homo sapiens) [compound 281]	+++ (50%-75% = +++)
282 (NYLVDPVTI; listed as Homo sapiens) [compound 282]	+++ (50%-75% = +++)
283 (EYQEIFQQL; listed as Homo sapiens) [compound 283]	+++ (50%-75% = +++)
284 (DYLKDPVTI; listed as Homo sapiens) [compound 284]	+++ (50%-75% = +++)
285 (VYVGDALLHAI; listed as Homo sapiens) [compound 285]	+++ (50%-75% = +++)
286 (SYGTILSHI; listed as Homo sapiens) [compound 286]	++++ (>=75% = ++++)
287 (IYNPNLLTASKF; listed as Homo sapiens) [compound 287]	+++ (50%-75% = +++)
288 (VYPDTVALTF; listed as Homo sapiens) [compound 288]	++ (20%-49% = ++)
289 (FFHEGQYVF; listed as Homo sapiens) [compound 289]	++++ (>=75% = ++++)
290 (KYGDFKLLEF; listed as Homo sapiens) [compound 290]	++++ (>=75% = ++++)
291 (YYLGSGRETF; listed as Homo sapiens) [compound 291]	+++ (50%-75% = +++)
292 (FYPQIINTF; listed as Homo sapiens) [compound 292]	++++ (>=75% = ++++)
293 (VYPHFSTTNLI; listed as Homo sapiens) [compound 293]	++++ (>=75% = ++++)
294 (RFPVQGTVTF; listed as Homo sapiens) [compound 294]	+++ (50%-75% = +++)
295 (SYLVIHERI; listed as Homo sapiens) [compound 295]	+++ (50%-75% = +++)
296 (SYQVIFQHF; listed as Homo sapiens) [compound 296]	++++ (>=75% = ++++)
297 (TYIDTRTVF; listed as Homo sapiens) [compound 297]	++++ (>=75% = ++++)
298 (AYKSEVVYF; listed as Homo sapiens) [compound 298]	++++ (>=75% = ++++)

Substance	Peptide exchange
299 (KYQYVLNEF; listed as Homo sapiens) [compound 299]	+++ (50%-75% = +++)
300 (TYPSQLPSL; listed as Homo sapiens) [compound 300]	+++ (50%-75% = +++)
301 (KFDDVTMLF; listed as Homo sapiens) [compound 301]	++++ (>=75% = ++++)
302 (LYLPVHYGF; listed as Homo sapiens) [compound 302]	+++ (50%-75% = +++)
303 (LYSVIKEDF; listed as Homo sapiens) [compound 303]	+++ (50%-75% = +++)
304 (EYNEVANLF; listed as Homo sapiens) [compound 304]	+++ (50%-75% = +++)
305 (NYENKQYLF; listed as Homo sapiens) [compound 305]	++++ (>=75% = ++++)
306 (VYPAEQPQI; listed as Homo sapiens) [compound 306]	+++ (50%-75% = +++)
307 (GYAFTLPLF; listed as Homo sapiens) [compound 307]	+++ (50%-75% = +++)
308 (TFDGHGVFF; listed as Homo sapiens) [compound 308]	+++ (50%-75% = +++)
309 (KYYRQTLLF; listed as Homo sapiens) [compound 309]	++ (20%-49% = ++)
310 (IYAPTLLVF; listed as Homo sapiens) [compound 310]	+++ (50%-75% = +++)
311 (EYLQNLNHI; listed as Homo sapiens) [compound 311]	++++ (>=75% = ++++)
312 (SYTSVLSRL; listed as Homo sapiens) [compound 312]	+++ (50%-75% = +++)
313 (KYTHFIQSF; listed as Homo sapiens) [compound 313]	++++ (>=75% = ++++)
314 (RYFKGDYSI; listed as Homo sapiens) [compound 314]	+++ (50%-75% = +++)
315 (FYIPHVPVSF; listed as Homo sapiens) [compound 315]	+++ (50%-75% = +++)

Second part, the substance after the results:

Peptide exchange	Substance
+++ (50%-75% = +++)	316 (VYFEGSDFKF; listed as Homo sapiens) [compound 316]
+++ (50%-75% = +++)	317 (VFDTSIAQLF; listed as Homo sapiens) [compound 317]
+++ (50%-75% = +++)	318 (TYSNSAFQYF; listed as Homo sapiens) [compound 318]
++++ (>=75% = ++++)	319 (KYSDVKNLI; listed as Homo sapiens) [compound 319]
+++ (50%-75% = +++)	341 (SYLTQHQRI; listed as Homo sapiens) [compound 341]
+++ (50%-75% = +++)	342 (NYAFLHRTL; listed as Homo sapiens) [compound 342]
+++ (50%-75% = +++)	343 (NYLGGTSTI; listed as Homo sapiens) [compound 343]
+++ (50%-75% = +++)	345 (EYNSDLHQFF; listed as Homo sapiens) [compound 345]
+++ (50%-75% = +++)	347 (VYAEVNSL; listed as Homo sapiens) [compound 347]
+++ (50%-75% = +++)	348 (IYLEHTESI; listed as Homo sapiens) [compound 348]
+++ (50%-75% = +++)	349 (QYSIISNVF; listed as Homo sapiens) [compound 349]
+++ (50%-75% = +++)	350 (KYGNFIDKL; listed as Homo sapiens) [compound 350]
+++ (50%-75% = +++)	351 (IFHEVPLKF; listed as Homo sapiens) [compound 351]
+++ (50%-75% = +++)	352 (QYGGDLTNTF; listed as Homo sapiens) [compound 352]
+++ (50%-75% = +++)	355 (IYVTGGHLF; listed as Homo sapiens) [compound 355]
++++ (>=75% = ++++)	357 (QFITSTNTF; listed as Homo sapiens) [compound 357]
+++ (50%-75% = +++)	360 (VFSPDGHLF; listed as Homo sapiens) [compound 360]
+++ (50%-75% = +++)	361 (TYADIGGLDNQI; listed as Homo sapiens) [compound 361]
++ (20%-49% = ++)	362 (VYNYAEQTL; listed as Homo sapiens) [compound 362]
+++ (50%-75% = +++)	364 (KYLNENQLSQL; listed as Homo sapiens) [compound 364]
+++ (50%-75% = +++)	366 (QYLELAHSL; listed as Homo sapiens) [compound 366]
++ (20%-49% = ++)	367 (LYQDHMQYI; listed as Homo sapiens) [compound 367]
+++ (50%-75% = +++)	368 (KYQNVKHNL; listed as Homo sapiens) [compound 368]
